In PubChem BioAssay AID330 (DTP/NCI, 2004) one finds T/C data, which are given here for 21 compounds.

The subject of this test is P388 leukemia ip, CD2F1 mice, survival T/C. The test can be described thus: NCI In Vivo Anticancer Drug Screen. Data for tumor model P388 Leukemia (intraperitoneal) in CD2F1 (CDF1) mice. As to conditions: endpoint: median survival time, higher = longer survival. The essentials: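 Mice carrying the transplanted tumor received test compound or vehicle. Survival was recorded in each group, and the value is the treated-group measurement divided by that of the vehicle-treated control group.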

Where [1] appears, read: dose: 50.0 mg/kg/injection, schedule: Q01DX005 (ip), vehicle: saline with Tween-80.
Setting [2] is: dose: 100.0 mg/kg/injection, schedule: Q01DX005 (ip), vehicle: saline with Tween-80.
Setting [3] is: dose: 200.0 mg/kg/injection, schedule: Q01DX005 (ip), vehicle: saline with Tween-80.
Setting [4] is: dose: 100.0 mg/kg/injection, schedule: Q01DX001 (ip), vehicle: Klucel (hydroxypropylcellulose) (HPC).
[5] abbreviates: dose: 200.0 mg/kg/injection, schedule: Q01DX001 (ip), vehicle: Klucel (hydroxypropylcellulose) (HPC).
[6] abbreviates: dose: 400.0 mg/kg/injection, schedule: Q01DX001 (ip), vehicle: Klucel (hydroxypropylcellulose) (HPC).
The mark [7] stands for this setting: dose: 60.0 mg/kg/injection, schedule: Q01DX005 (ip), vehicle: saline with Tween-80.
Setting [8] is: dose: 120.0 mg/kg/injection, schedule: Q01DX005 (ip), vehicle: saline with Tween-80.
Setting [9] is: dose: 240.0 mg/kg/injection, schedule: Q01DX005 (ip), vehicle: saline with Tween-80.
Setting [10] is: dose: 60.0 mg/kg/injection, schedule: Q01DX005 (ip), vehicle: Klucel (hydroxypropylcellulose) (HPC).
The mark [11] stands for this setting: dose: 120.0 mg/kg/injection, schedule: Q01DX005 (ip), vehicle: Klucel (hydroxypropylcellulose) (HPC).
[12] abbreviates: dose: 240.0 mg/kg/injection, schedule: Q01DX005 (ip), vehicle: Klucel (hydroxypropylcellulose) (HPC).
[13] abbreviates: dose: 50.0 mg/kg/injection, schedule: Q01DX005 (ip), vehicle: Klucel (hydroxypropylcellulose) (HPC).
[14] abbreviates: dose: 100.0 mg/kg/injection, schedule: Q01DX005 (ip), vehicle: Klucel (hydroxypropylcellulose) (HPC).

Several values for one entry are separate records, joined by “and”; a condition that tells them apart may be missing. Equal values may be shown once. Inconclusive results and toxic doses are left out.

Regarding `CCOC(=O)C1(c2ccccc2)CCN(c2c3ccccc3nc3ccccc23)CC1`, the T/C reads like this: (dose: 25.0 mg/kg/injection, schedule: Q04DX003 (ip), vehicle: Klucel (hydroxypropylcellulose) (HPC)) 112 % of control; (dose: 50.0 mg/kg/injection, schedule: Q04DX003 (ip), vehicle: Klucel (hydroxypropylcellulose) (HPC)) 111 % of control; (dose: 100.0 mg/kg/injection, schedule: Q04DX003 (ip), vehicle: Klucel (hydroxypropylcellulose) (HPC)) 111 % of control and 115 % of control.

On to `Cc1nc(N)c2c3c(sc2n1)CCCC3`, for which the T/C is 95 % of control under setting [1], 97 % of control under setting [2] and 100 % of control under setting [3].

Take `O/N=C/c1c(-c2ccccc2)nc2sccn12`: the T/C under setting [4] is 94 % of control, the T/C under setting [5] is 86 % of control and the T/C under setting [6] is 94 % of control.

With `CCOC(=O)/C=C1\CONC(c2ccc(OC)cc2)=N1`, the T/C is 106 % of control under setting [7], 97 % of control under setting [8] and 105 % of control under setting [9].

Take `CCOC(=O)c1ccc(N=C=S)cc1`: the T/C is, setting by setting: (dose: 6.25 mg/kg/injection, schedule: Q01DX009 (ip), vehicle: distilled water + Tween-80) 100 % of control; (dose: 12.5 mg/kg/injection, schedule: Q01DX009 (ip), vehicle: distilled water + Tween-80) 100 % of control; (dose: 25.0 mg/kg/injection, schedule: Q01DX009 (ip), vehicle: distilled water + Tween-80) 100 % of control and 111 % of control; (dose: 50.0 mg/kg/injection, schedule: Q01DX009 (ip), vehicle: distilled water + Tween-80) 117 % of control; (dose: 100.0 mg/kg/injection, schedule: Q01DX009 (ip), vehicle: distilled water + Tween-80) 109 % of control.

`CCOCc1c(-c2ccccc2)sc2ccccc2c1=O`: the T/C was 98 % of control under setting [10], 95 % of control under setting [11] and 92 % of control under setting [12].

As for `Cc1ccc2c(ccc(CC(=S)[S-])[n+]2C)c1`, the T/C is 114 % of control (dose: 25.0 mg/kg/injection, schedule: Q01DX009 (ip), vehicle: Klucel (hydroxypropylcellulose) (HPC)) and 120 % of control (dose: 50.0 mg/kg/injection, schedule: Q01DX009 (ip), vehicle: Klucel (hydroxypropylcellulose) (HPC)).

Consider `C=CN1CCCC1=O`, for which the T/C is 104 % of control (dose: 100.0 mg/kg/injection, schedule: Q04DX003 (ip), vehicle: saline); 100 % of control (dose: 200.0 mg/kg/injection, schedule: Q04DX003 (ip), vehicle: saline); 100 % of control (dose: 0.25 % in 0.5 ml injection vol, schedule: Q01DX009 (ip), vehicle: water); 100 % of control (dose: 400.0 mg/kg/injection, schedule: Q04DX003 (ip), vehicle: saline); 107 % of control (dose: 0.5 % in 0.5 ml injection vol, schedule: Q01DX009 (ip), vehicle: water); 100 % of control and 102 % of control (dose: 1.0 % in 0.5 ml injection vol, schedule: Q01DX009 (ip), vehicle: water). Further, the T/C is 100 % of control and 98 % of control (dose: 2.0 % in 0.5 ml injection vol, schedule: Q01DX009 (ip), vehicle: water); 102 % of control and 104 % of control and 108 % of control (dose: 4.0 % in 0.5 ml injection vol, schedule: Q01DX009 (ip), vehicle: water); 102 % of control and 109 % of control and 92 % of control (dose: 8.0 % in 0.5 ml injection vol, schedule: Q01DX009 (ip), vehicle: water); 100 % of control and 103 % of control and 95 % of control (dose: 16.0 % in 0.5 ml injection vol, schedule: Q01DX009 (ip), vehicle: water).

In the case of `O=c1oc2ccccc2cc1S(=O)(=O)c1ccccc1`, the T/C is 94 % of control under setting [7], 91 % of control under setting [8] and 91 % of control under setting [9].

As for `O=C1CSC(c2ccsc2)N1c1nncs1` (stereo unspecified), the T/C is, setting by setting: under setting [10], 101 % of control; under setting [11], 100 % of control; under setting [12], 108 % of control.

`CC1CCC2(C(=O)O)CCC3(C)C(=CCC4C5(C)CC(O)C(O)C(C)(CO)C5C(O)CC43C)C2C1C` (stereo unspecified): the T/C runs as follows: (dose: 25.0 mg/kg/injection, schedule: Q01DX005 (ip), vehicle: Klucel (hydroxypropylcellulose) (HPC)) 90 % of control; under setting [13], 92 % of control; under setting [14], 95 % of control.

Consider `Nc1cccc(NCc2ccccn2)n1`, for which the T/C was 101 % of control under setting [13] and 104 % of control under setting [14].

Take `CC(=O)NS(=O)(=O)c1ccc(NN=Nc2ccccc2Cl)cc1`: the T/C is 95 % of control under setting [13]; 94 % of control under setting [14]; 97 % of control (dose: 200.0 mg/kg/injection, schedule: Q01DX005 (ip), vehicle: Klucel (hydroxypropylcellulose) (HPC)).

With `CC[N+](CC)=c1ccc2nc3c(cc(NCc4ccccc4)c4ccccc43)oc-2c1`, the T/C is, setting by setting: (dose: 12.5 mg/kg/injection, schedule: Q01DX005 (ip), vehicle: saline with Tween-80) 103 % of control; (dose: 25.0 mg/kg/injection, schedule: Q01DX005 (ip), vehicle: saline with Tween-80) 100 % of control; under setting [1], 105 % of control and 107 % of control.

Consider `C=C1SC(=Nc2c(C)cc(C)cc2C)N(C(=O)c2sc3ccccc3c2Cl)C12CCCCC2`, for which the T/C by setting is: (dose: 50.0 mg/kg/injection, schedule: Q01DX009 (ip), vehicle: suspension in saline) 96 % of control; (dose: 100.0 mg/kg/injection, schedule: Q01DX009 (ip), vehicle: suspension in saline) 103 % of control; (dose: 200.0 mg/kg/injection, schedule: Q01DX009 (ip), vehicle: suspension in saline) 91 % of control.

On to `COc1ccc(C(Cc2cc(OC)c(OC)cc2Br)NC=O)cc1OC` (stereo unspecified), for which the T/C under setting [1] is 89 % of control, the T/C under setting [2] is 90 % of control and the T/C under setting [3] was 91 % of control.

With `CN(C)c1cnc(N)nc1N`, the T/C (dose: 25.0 mg/kg/injection, schedule: Q01DX005 (ip), vehicle: saline) is 95 % of control and 97 % of control; the T/C (dose: 50.0 mg/kg/injection, schedule: Q01DX005 (ip), vehicle: saline) is 97 % of control; the T/C (dose: 100.0 mg/kg/injection, schedule: Q01DX005 (ip), vehicle: saline) was 95 % of control.

With `COC(=O)c1cc(-c2ccc(N)cc2)c2c(=O)n(-c3ccccc3)[nH]c2n1`, the T/C by setting is: under setting [7], 100 % of control; under setting [8], 91 % of control; under setting [9], 87 % of control.

For `O=C1NC(=O)c2ccc3c4ccc5c6c(ccc(c7ccc1c2c73)c46)c(=O)n1c2ccccc2nc51`, the T/C (dose: 90.0 mg/kg/injection, schedule: Q01DX001 (ip), vehicle: Klucel (hydroxypropylcellulose) (HPC)) was 94 % of control; the T/C (dose: 180.0 mg/kg/injection, schedule: Q01DX001 (ip), vehicle: Klucel (hydroxypropylcellulose) (HPC)) was 94 % of control; the T/C (dose: 360.0 mg/kg/injection, schedule: Q01DX001 (ip), vehicle: Klucel (hydroxypropylcellulose) (HPC)) is 92 % of control.

Consider `COc1cc2c(cc1OC)C(Cc1cc(Br)sc1Br)N(C(C)=O)CC2` (stereo unspecified), for which the T/C under setting [4] was 101 % of control, the T/C under setting [5] was 101 % of control and the T/C under setting [6] was 113 % of control.

Consider `c1ccc2c(NCCCCCCCCNc3c4ccccc4nc4ccccc34)c3ccccc3nc2c1`, for which the T/C runs as follows: (dose: 0.62 mg/kg/injection, schedule: Q## X009 (ip), vehicle: lactic acid) 121 % of control; (dose: 0.63 mg/kg/injection, schedule: Q01DX009 (ip), vehicle: other) 104 % of control and 114 % of control; (dose: 1.25 mg/kg/injection, schedule: Q01DX009 (ip), vehicle: lactic acid) 161 % of control; (dose: 1.25 mg/kg/injection, schedule: Q01DX009 (ip), vehicle: saline) 124 % of control; (dose: 2.5 mg/kg/injection, schedule: Q01DX009 (ip), vehicle: lactic acid) 159 % of control; (dose: 2.5 mg/kg/injection, schedule: Q## X009 (ip), vehicle: lactic acid) 154 % of control. Besides, the T/C was 153 % of control (dose: 10.0 mg/kg/injection, schedule: Q01DX009 (ip), vehicle: saline); 90 % of control (dose: 40.0 mg/kg/injection, schedule: Q01DX009 (ip), vehicle: saline); 88 % of control (dose: 80.0 mg/kg/injection, schedule: Q04DX003 (ip), vehicle: Klucel (hydroxypropylcellulose) (HPC)).
